One data set deals with PfCDPK1 (Plasmodium falciparum, UniProt P62344). The experiment in a line: PfCDPK1 enzyme inhibition (Kinase-Glo ATP depletion). The data set is classed as biochemical. As to conditions: for IC50: isolated recombinant enzyme. On the procedure:
[10] A high throughput screen of 35,422 compounds comprising a diverse set of small molecules from a variety of commercial suppliers and 8100 kinase-focused compounds (BioFocus) was performed using Kinase-Glo® (Promega) to measure ATP depletion resulting from the kinase reaction. Full length recombinant PfCDPK1 was incubated with MyoA-Tail domain Interacting Protein (MTIP) substrate and the amount of ATP remaining after 1 h was measured by luminescence using a Pherastar plate reader (BMG Labtech).

For another data set, the system named is P. falciparum parasite. The data set can be described thus: In vitro P. falciparum parasite growth (FACS, hydroethidine). The class given is cell-based, Plasmodium falciparum. As to conditions: for EC50 / inhibition at 1 µM: Plasmodium falciparum; for inhibition at 1 µM: at 1 μM inhibitor concentration. On the procedure: [15] P. falciparum EC50 values were measured using an in vitro model of malaria parasite growth. Compounds were diluted into 2% DMSO and added to parasites 24 h post-invasion in a 96-well plate and incubated under static conditions. Cells were recovered 48 h later and processed for FACS analysis using hydroethidine to stain parasite DNA. Data was acquired using CellQuest Pro software on a FACSCalibur (Becton Dickinson). Growth inhibition was calculated using the following formula: % growth inhibition = (1 − [parasitaemia of culture/parasitaemia of control culture]) ×100.

Data set [1] in a line: Mouse liver microsome stability (MLM). The data set is classed as in vitro ADME. As to conditions: % remaining at 30 min, mouse microsomes.
The nature of data set [2]: Human liver microsome stability (HLM). As to conditions: % remaining at 30 min, human microsomes. The class given is in vitro ADME.
The nature of a further data set: Measured log D. The class given is physicochemical. An excerpt: Table 6 In vitro ADME and in vivo efficacy data for selected compounds | column: 17; 24; 27; 28
A short description of another data set: PAMPA permeability. The data set is classed as in vitro ADME.
The subject of the next data set is P. berghei. The experiment in a line: 4-Day Peters test in P. berghei mouse model. As to conditions: oral once daily 50 mg/kg, 4 days, relative to vehicle. The data set is classed as in vivo. On the procedure:
In advance of in vivo testing, it was shown that the inhibitors retained potency against the isolated P. berghei CDPK1 enzyme.[16] Compounds were dosed with an oral, once daily 50 mg/kg regime over 4 days in the standard Peters test, and their in vitro ADME and in vivo efficacy data is shown in Table 6.

The next data set is described as follows: Mouse pharmacokinetics. The data set is classed as in vivo.
In data set [3] the target is 73-member human kinase panel. The data set can be described thus: Kinase selectivity against 73-member human kinase panel. As to conditions: 1 μM inhibitor concentration; for Kinases hit in human kinase panel: 73-member panel. The class given is biochemical. On the procedure: [17] Kinase selectivity profiling was carried out at the National Centre for Protein Kinase Profiling in the MRC Protein Phosphorylation Unit at the University of Dundee.

Where [4] appears, read: in vitro parasite growth, 48 h, read-out: P. falciparum EC50.

Molecules are shown by their SMILES. Like-named read-outs stand apart in the source and are kept apart here. Where only a bound is given, the exact number is not on record here.

PfCDPK1, sequence (P62344 whole entry, the tested form may be a part): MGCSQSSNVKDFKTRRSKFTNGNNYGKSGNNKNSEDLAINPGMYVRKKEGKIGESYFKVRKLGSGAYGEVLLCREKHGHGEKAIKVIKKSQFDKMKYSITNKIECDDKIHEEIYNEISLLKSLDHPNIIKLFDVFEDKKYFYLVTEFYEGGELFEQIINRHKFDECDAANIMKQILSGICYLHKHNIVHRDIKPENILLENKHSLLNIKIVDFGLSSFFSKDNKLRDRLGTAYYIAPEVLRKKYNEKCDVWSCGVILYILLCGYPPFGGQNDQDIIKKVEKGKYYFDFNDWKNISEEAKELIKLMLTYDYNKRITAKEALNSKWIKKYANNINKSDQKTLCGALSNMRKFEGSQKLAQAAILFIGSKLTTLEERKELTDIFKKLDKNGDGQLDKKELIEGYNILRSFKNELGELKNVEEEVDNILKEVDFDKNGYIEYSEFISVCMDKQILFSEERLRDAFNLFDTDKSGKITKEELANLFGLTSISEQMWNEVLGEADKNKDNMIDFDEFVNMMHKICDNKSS

Take `CC(=O)Nc1cccc(-c2cnc3ccc(N[C@H]4CC[C@H](N)CC4)nn23)c1` [Compound 6]: on PfCDPK1, the IC50 was determined as 0.011 µM. Further, the EC50 in the data set on P. falciparum parasite (setting [4]) came out at 0.32 µM.

For `CC(C)CCNc1ncc(-c2cnc3ccc(NC4CCN(C)CC4)nn23)cn1` [Compound 31], the IC50 at PfCDPK1 was found to be 0.014 µM. Besides, in the data set with P. falciparum parasite (setting [4]), the EC50 was 0.47 µM.

Regarding `CC(C)CCNc1ccc(-c2cnc3ccc(NC4CCNCC4)nn23)cn1` [Compound 29], the half-maximal inhibitory concentration (IC50) on PfCDPK1 was found to be 0.015 µM. Moreover, the EC50 in the data set with P. falciparum parasite (setting [4]) was determined as 0.24 µM.

Take `CC(C)CCNc1ccc(-c2cnc3ccc(N4CCN(C)CC4)nn23)cn1` [Compound 26]: on PfCDPK1, the IC50 came out at 0.175 µM. Moreover, the EC50 in the data set with P. falciparum parasite (setting [4]) turned out to be 2.4 µM.

In the case of `CC(C)CCNc1ccc(-c2cnc3ccc(N4CCC(N(C)C)CC4)nn23)cn1` [Compound 27], on PfCDPK1, the half-maximal inhibitory concentration (IC50) stood at 0.044 µM. Moreover, the EC50 in the data set on P. falciparum parasite (setting [4]) worked out at 0.57 µM. Further, the “MLM (% rem)” value in data set [1] is 84 % rem. The “HLM (% rem)” value in data set [2] came out at 80 % rem. In addition, the logD in the data set “Measured log D” came to 3.2. The compound also displayed a Papp in the data set “PAMPA permeability” of 13.7 ×10⁻⁶ cm/s. Moreover, in the data set with P. berghei, the “Reduction in parasitaemia in vivo” value was 7%.

As for `CC(C)CCNc1ccc(-c2cnc3ccc(NC4CN(C)C4)nn23)cn1` [Compound 25], the 50% inhibitory concentration (IC50) on PfCDPK1 is 0.089 µM. Besides, the EC50 with P. falciparum parasite (setting [4]) was 0.93 µM.

On to `N#Cc1ccc(-c2cnc3ccc(NCCc4cccnc4)nn23)cc1` [Compound 4], for which, on PfCDPK1, the concentration for half-maximal inhibition (IC50) is 0.071 µM. Also, testing at 1 µM in the data set on P. falciparum parasite gave an inhibition of 98%.

Turning to `CC(=O)Nc1cccc(-c2cnc3ccc(NCCc4ccccn4)nn23)c1` [Compound 3], the IC50 on PfCDPK1 is 0.066 µM. Besides, the inhibition at 1 µM with P. falciparum parasite is 35%.

In the case of `CN1CCC(Nc2ccc3ncc(-c4ccc(NCC5CC5)nc4)n3n2)CC1` [Compound 19], the IC50 at PfCDPK1 stood at 0.036 µM. The EC50 with P. falciparum parasite (setting [4]) came out at 0.45 µM.

Regarding `COC(=O)Nc1cccc(-c2cnc3ccc(NC4CCN(C)CC4)nn23)c1` [Compound 8], the half-inhibitory concentration (IC50) at PfCDPK1 came out at 0.018 µM. In the data set with P. falciparum parasite (setting [4]), the EC50 was determined as 0.75 µM.

Take `CC(C)CCNc1ccc(-c2cnc3ccc(NC4CCN(C)CC4)nn23)cn1` [Compound 17]: the EC50 in the data set with P. falciparum parasite (P. falciparum, read-out: Cell potency) was < 0.5 µM. Also, the EC50 in the data set on P. falciparum parasite (setting [4]) came to 0.4 µM. The “MLM (% rem)” value in [1] came out at 63 % rem. In addition, in [2], the “HLM (% rem)” value was 85 % rem. In addition, the logD in “Measured log D” was 3.4. The “Reduction in parasitaemia in vivo” value in the data set on P. berghei amounted to 46%. In “Mouse pharmacokinetics”, the “Clearance (in words)” value is given as “moderate to high clearance”, the “Oral bioavailability in mouse (in words)” value was “good oral bioavailability” and the “i.v. t1/2” value is given as 2 h. The “Oral %F” value in “Mouse pharmacokinetics” (oral) is listed as 84%. The “Kinases hit in human kinase panel” value in data set [3] was “MKK1, RSK1, PKD1, CHK2, Aurora B, NUAK1, GCK, MLK1, Src, Lck, YES1, and VEGFR”.

Consider `CC(C)CCNc1ccc(-c2cnc3ccc(N4CCC(N)CC4)nn23)cn1` [Compound 28], for which the IC50 on PfCDPK1 stood at 0.013 µM. In the data set with P. falciparum parasite (setting [4]), the EC50 amounted to 0.14 µM. Also, in data set [1], the “MLM (% rem)” value stood at 90 % rem. The “HLM (% rem)” value in [2] was determined as 90 % rem. Besides, in “Measured log D”, the logD is 2.5. This compound also had an apparent permeability (Papp) in “PAMPA permeability” of 5.5 ×10⁻⁶ cm/s. Besides, the “Reduction in parasitaemia in vivo” value in the data set with P. berghei is reported as 11%. Also, in data set [3], the “Selectivity profile against panel of human kinases” value is given as “good selectivity profiles”; the “Kinases hit in human kinase panel” value is “RSK1, CAMK1, PHK, NUAK1, and HER4”.

As for `COCCNc1ccc(-c2cnc3ccc(NC4CCN(C)CC4)nn23)cn1` [Compound 20], the IC50 on PfCDPK1 was found to be 0.025 µM. Also, the EC50 in the data set with P. falciparum parasite (setting [4]) was found to be 0.67 µM.

For `CN1CCC(Nc2ccc3ncc(-c4cccc(NC(=O)C5CC5)c4)n3n2)CC1` [Compound 7], the concentration for half-maximal inhibition (IC50) at PfCDPK1 turned out to be 0.022 µM. In the data set with P. falciparum parasite (setting [4]), the EC50 came out at 0.56 µM.

As for `Fc1cccc(-c2cnc3ccc(NCCc4cccnc4)nn23)c1` [Compound 5], at PfCDPK1, the IC50 stood at 0.08 µM. This compound also yielded an inhibition at 1 µM with P. falciparum parasite of 6%.

Turning to `CC(C)CCOc1ccc(-c2cnc3ccc(N[C@H]4CC[C@H](N)CC4)nn23)cn1` [Compound 30], the IC50 at PfCDPK1 was determined as 0.17 µM. Moreover, the EC50 in the data set with P. falciparum parasite (setting [4]) was found to be 0.54 µM.

Turning to `CC(C)CCNc1cc(-c2cnc3ccc(NC4CCN(C)CC4)nn23)ccn1` [Compound 21], the “Loss in potency against the enzyme in comparison to 17” value on PfCDPK1 (PfCDPK1) is “sevenfold loss in potency”. Further, the half-maximal inhibitory concentration (IC50) at PfCDPK1 was determined as 0.088 µM.

Regarding `CC(C)CCNc1ccc(-c2cnc3ccc(NC4CCN(C)C4)nn23)cn1` (stereo not shown) [Compound 24], the IC50 on PfCDPK1 turned out to be 0.023 µM. For the same compound, the EC50 in the data set on P. falciparum parasite (setting [4]) is 0.17 µM. In addition, in [1], the “MLM (% rem)” value stood at 74 % rem. Also, in [2], the “HLM (% rem)” value came to 63 % rem. The log distribution coefficient (logD) in “Measured log D” stood at 3.5. Further, the Papp in the data set “PAMPA permeability” stood at 11.4 ×10⁻⁶ cm/s. Also, in the data set on P. berghei, the “Reduction in parasitaemia in vivo” value was determined as 30%. Moreover, in [3], the “Selectivity profile against panel of human kinases” value is given as “good selectivity profiles”; the “Kinases hit in human kinase panel” value is “RSK1 and HER4”.

For `CC(C)CCNC(=O)c1ccc(-c2cnc3ccc(N[C@H]4CC[C@H](N)CC4)nn23)cc1` [Compound 9], the half-inhibitory concentration (IC50) at PfCDPK1 came to 0.016 µM. Further, in the data set with P. falciparum parasite, the “EC50 against the P. falciparum parasite” value is on record as “sub-micromolar”. Besides, the EC50 in the data set with P. falciparum parasite (setting [4]) was 0.46 µM.

With `NC(=O)c1ccc(-c2cnc3ccc(NCCc4cccnc4)nn23)cc1` [Compound 1], the half-maximal inhibitory concentration (IC50) on PfCDPK1 was found to be 0.059 µM. In addition, testing at 1 µM in the data set on P. falciparum parasite gave an inhibition of 99%.

`CC(C)CCNc1ncc(-c2cnc3ccc(N[C@H]4CC[C@H](N)CC4)nn23)cn1` [Compound 32]: the IC50 at PfCDPK1 amounted to 0.016 µM. In addition, the EC50 in the data set with P. falciparum parasite (setting [4]) was determined as 0.17 µM.

As for `CC(C)CCNC(=O)c1ccc(-c2cnc3ccc(NC4CCN(C)CC4)nn23)cc1` [Compound 10], the 50% inhibitory concentration (IC50) on PfCDPK1 was determined as 0.023 µM. Besides, the “EC50 against the P. falciparum parasite” value in the data set with P. falciparum parasite is “sub-micromolar”. For the same compound, in the data set on P. falciparum parasite (setting [4]), the EC50 amounted to 0.78 µM.

For the compound `CCCCNc1ccc(-c2cnc3ccc(NC4CCN(C)CC4)nn23)cn1` [Compound 18], on PfCDPK1, the half-maximal inhibitory concentration (IC50) amounted to 0.014 µM. Further, the EC50 with P. falciparum parasite (setting [4]) turned out to be 0.43 µM.

With `NC(=O)c1ccc(-c2cnc3ccc(NCCc4ccccn4)nn23)cc1` [Compound 2], at PfCDPK1, the half-inhibitory concentration (IC50) was 0.061 µM. The same compound returned an inhibition at 1 µM in the data set on P. falciparum parasite of 99%.

As to `CC(C)CCNc1nccc(-c2cnc3ccc(NC4CCN(C)CC4)nn23)n1` [Compound 33], the IC50 on PfCDPK1 was 0.424 µM.
